Test [1] addresses T1, Autophosphorylated AurA kinase (Homo sapiens, UniProt O14965).
T1 construct: made in house; host or cells: Sf9 insect cells
T1 sequence (O14965 1-403): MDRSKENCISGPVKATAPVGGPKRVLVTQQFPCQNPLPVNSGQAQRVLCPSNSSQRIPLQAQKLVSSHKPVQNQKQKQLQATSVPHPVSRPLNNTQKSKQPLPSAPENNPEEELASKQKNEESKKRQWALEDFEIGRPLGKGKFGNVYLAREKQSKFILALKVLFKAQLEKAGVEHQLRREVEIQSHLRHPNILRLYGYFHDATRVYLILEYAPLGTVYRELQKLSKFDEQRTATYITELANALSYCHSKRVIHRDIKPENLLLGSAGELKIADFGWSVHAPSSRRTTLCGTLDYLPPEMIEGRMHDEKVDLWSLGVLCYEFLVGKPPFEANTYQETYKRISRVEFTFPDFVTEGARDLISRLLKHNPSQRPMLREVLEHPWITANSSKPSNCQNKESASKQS
The test can be described thus: AurA Luminescence-Based ATP Depletion Enzyme Assay. Conditions: 10 μM ATP. Format: biochemical. As for the experimental part: AurA Luminescence-Based ATP Depletion Enzyme Assay
Materials: Kemptide peptide substrate=LRRASLG (Biopeptide, San Diego, Calif.), ATP (Sigma Cat#A-3377, FW=551), HEPES buffer, pH 7.5, 10% Brij 35 (Calbiochem Cat#203728), MgCl2, Staurosporine (Streptomyces sp. Sigma Cat#85660-1MG), white Costar 384-well flat-bottom plate (VWR Cat#29444-088), Autophosphorylated AurA kinase (see below), Kinase-Glo™ (Promega Cat#V6712).
Stock Solutions: 10 mM Kemptide peptide (7.72 mg/ml in water), stored at −20° C.; 100 mM HEPES buffer+0.015% Brij 35, pH 7.5 (5 ml 1M HEPES stock+75 μL 10% Brij 35+45 ml miliQH2O); 10 mM ATP (5.51 mg/ml in dH2O) stored at −20° C. (diluted 50 μl into total of 10 ml miliQH2O daily=50 μM ATP working stock); 100 mM MgCl2; 200 μM Staurosporine, 2× Kinase-Glo™ reagent (made fresh or stored at −20° C.).
AurA Autophosphorylation Reaction: ATP and MgCl2 were added to 1-5 mg/ml AurA at final concentrations of 10 mM and 100 mM, respectively. The autophosphorylation reaction was incubated at 21° C. for 2-3 h. The reaction was stopped by the addition of EDTA to a final concentration of 50 mM, and samples were flash frozen with liquid N2 and stored at −80° C.
Standard Assay Setup for 384-well format (20 μl kinase reaction, 40 μl detection reaction): 10 mM MgCl2; 0.2 mM Kemptide peptide; 1 μl test compound (in DMSO); 0.3 μg/ml Autophosphorylated AurA kinase; 10 μM ATP; 100 mM HEPES+0.015% Brij buffer. Positive controls contained DMSO with no test compound. Negative controls contained 5 μM staurosporine. The kinase reactions were initiated at time t=0 by the addition of ATP. Kinase reactions were incubated at 21° C. for 45 min, then 20 μl of Kinase-Glo™ reagent were added to each well to quench the kinase reaction and initiate the luminescence reaction. After a 20 min incubation at 21° C., the luminescence was detected in a plate-reading luminometer.
The Sf9 insect cell pellets (˜18 g) produced from 6 L of cultured cells expressing human Aurora-2 were resuspended in 50 mM Na Phosphate pH 8.0, 500 mM NaCl, 10% glycerol, 0.2% n-octyl-β-D-glucopyranoside (BOG) and 3 mM β-Mercaptoethanol (BME). One tablet of Roche Complete, EDTA-free protease inhibitor cocktail (Cat#1873580) and 85 units Benzonase (Novagen Cat#70746-3)) were added per 1 L of original culture. Pellets were resuspended in approximately 50 ml per 1 L of original culture and were then sonicated on ice with two 30-45 sec bursts (100% duty cycle). Debris was removed by centrifugation and the supernatant was passed through a 0.8 μm syringe filter before being loaded onto a 5 ml Ni^2+ HiTrap column (Pharmacia). The column was washed with 6 column volumes of 50 mM Na Phosphate pH 8.0, 500 mM NaCl, 10% glycerol, 3 mM BME. The protein was eluted using a linear gradient of the same buffer containing 500 mM Imidazole. The eluant (24 ml) was cleaved overnight at 4° C. in a buffer containing 50 mM Na Phosphate pH 8.0, 500 mM NaCl, 10% glycerol, 3 mM BME and 10,000 units of TEV (Invitrogen Cat#10127-017). The protein was passed over a second nickel affinity column as described above; the flow-through was collected. The cleaved protein fractions were combined and concentrated using spin concentrators. Further purification was done by gel filtration chromatography on a S75 sizing column in 50 mM Na Phosphate (pH 8.0), 250 mM NaCl, 1 mM EDTA, 0.1 mM AMP-PNP or ATP buffer, and 5 mM DTT. The cleanest fractions were combined and concentrated to approximately 8-11 mg/ml, and were either flash frozen in liquid nitrogen in 120 μl aliquots and stored at −80° C., or stored at 4° C.

For test [2], the system named is HCT116 cells. The test can be described thus: 96-well XTT cell survival assay (AurA XTT). Format: cell-based. Conditions: Homo sapiens, HCT-116, 72 hours. As for the experimental part:
HCT116 cells were maintained in McCoy's 5a Medium supplemented with 10% fetal bovine serum (FBS) 2 mM L-Glutamine and 100 units penicillin/100 μg streptomycin, at 37° C. in 5% CO2
Compounds were tested in the following assays in duplicate.
96-well XTT assay: Cells were grown in growth media containing various concentrations of compounds (duplicates) on a 96-well flat bottom plate for 72 hours at 37° C. in 5% CO2. The starting cell number was 5000 cells per well and volume was 120 μl. At the end of the 72-hour incubation, 40 μl of XTT labeling mixture (50:1 solution of sodium 3′-[1-(phenylaminocarbonyl)-3,4-tetrazolium]-bis(4-methoxy-6-nitro) benzene sulfonic acid hydrate and Electron-coupling reagent: PMS (N-methyl dibenzopyrazine methyl sulfate) were added to each well of the plate. After an additional 2-6 hours […] with a spectrophotometer.

The values below come from patent US7977481B2, “Pyrimidinyl-thiophene kinase modulators” (SGX Pharmaceuticals, Inc., priority 2005, dated 2011).

The compound `NC(=O)c1cccc(Nc2nccc(-c3ccc(Br)s3)n2)c1` yielded an IC50 in test [1] of 0.1 to 0.5 µM.
Consider `CCN(CCC#N)C(=O)c1ccc(-c2ccnc(Nc3ccncc3)n2)s1`, for which the half-inhibitory concentration (IC50) in test [1] is > 0.5 µM; in test [2], 1 to 5 µM.
On to `Cc1noc(C)c1-c1ccc(-c2ccnc(Nc3cccc(C(C)O)c3)n2)s1` (stereo not shown), for which the 50% inhibitory concentration (IC50) in test [1] lay within 0.1 to 0.5 µM.
As to `CC(O)c1cccc(Nc2nccc(-c3ccc(CNC(=O)c4ccccc4)s3)n2)c1` (stereo not shown), the half-inhibitory concentration (IC50) in test [1] fell in the range of 0.1 to 0.5 µM.
As for `O=S(=O)(Nc1ncc[nH]1)c1ccc(Nc2nccc(-c3ccc(S(=O)(=O)N4CCCCC4)s3)n2)cc1`, the IC50 in test [1] was < 0.1 µM.
Consider `CC(O)c1cccc(Nc2nccc(-c3cc(C(=O)NCc4ccccc4)cs3)n2)c1` (stereo not shown), for which the IC50 in test [1] is < 0.1 µM.
